Assay results as given in PubChem BioAssay (NCI).
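Briefly, cells in 96-well plates were exposed to five compound concentrations for 48 h, and endpoints were estimated by linear interpolation. Abbreviation: GI50, concentration required for 50% inhibition of growth. The concentration for full growth arrest is given as TGI.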

Assays:
Experiment in all cases: NCI-60 cell line screen, 48 h
786-0 renal = tested on: 786-0 renal
A498 renal = tested on: A498 renal
A549 NSCLC = tested on: A549 NSCLC
HCT-116 colon = tested on: HCT-116 colon
KM12 colon = tested on: KM12 colon
OVCAR-3 ovarian = tested on: OVCAR-3 ovarian
OVCAR-4 ovarian = tested on: OVCAR-4 ovarian
SR leukemia = tested on: SR leukemia
SW-620 colon = tested on: SW-620 colon
U251 CNS = tested on: U251 CNS

| SMILES | TGI (786-0 renal) | TGI (A498 renal) | TGI (A549 NSCLC) | TGI (HCT-116 colon) | TGI (KM12 colon) | TGI (OVCAR-3 ovarian) | TGI (OVCAR-4 ovarian) | TGI (SR leukemia) | TGI (SW-620 colon) | TGI (U251 CNS) | GI50 (786-0 renal) | GI50 (A498 renal) | GI50 (A549 NSCLC) | GI50 (HCT-116 colon) | GI50 (KM12 colon) | GI50 (OVCAR-3 ovarian) | GI50 (OVCAR-4 ovarian) | GI50 (SR leukemia) | GI50 (SW-620 colon) | GI50 (U251 CNS) |
| --- | --- | --- | --- | --- | --- | --- | --- | --- | --- | --- | --- | --- | --- | --- | --- | --- | --- | --- | --- | --- |
| CCOC(=O)C(=Cc1ccc(Oc2ccccc2)cc1)C(=O)OCC | 3.47 µM | 28.8 µM | 22.6 µM | 5.93 µM | 19 µM | 19.1 µM | 22.9 µM | 6.07 µM | 5.9 µM | 9.25 µM | – | – | – | – | – | – | – | – | – | – |
| COc1ccc(-c2nc3ccccn3c2/C=C/C(=O)c2cc(OC)c(OC)c(OC)c2)cc1 | > 100 µM | 43.9 µM | > 100 µM | 11.1 µM | > 100 µM | 9.67 µM | > 100 µM | > 100 µM | > 100 µM | 30.6 µM | 3.9 µM | 10.4 µM | 7.96 µM | 2.26 µM | 4.99 µM | 2.88 µM | 5.72 µM | 3.71 µM | 4.16 µM | 3 µM |
| CCN(C(=O)c1cc(F)ccc1Oc1cncnc1N1CC2(CCN(CC3CCC(NS(=O)(=O)CC)CC3)CC2)C1)C(C)C (stereo not drawn) | > 100 µM | > 100 µM | > 100 µM | > 100 µM | > 100 µM | > 100 µM | > 100 µM | > 100 µM | > 100 µM | > 100 µM | > 100 µM | > 100 µM | > 100 µM | > 100 µM | > 100 µM | > 100 µM | > 100 µM | > 100 µM | > 100 µM | > 100 µM |
| O=C(NCc1ccc(Cn2c(=O)sn(-c3ccccc3)c2=O)cc1)OCc1ccc2c(Br)cc(Br)c(O)c2n1 | 1.08 µM | 2.9 µM | 3.78 µM | 0.328 µM | 3.47 µM | 0.738 µM | 1.96 µM | > 100 µM | 0.649 µM | 3 µM | 0.495 µM | 1.53 µM | 1.51 µM | 0.141 µM | 1.57 µM | 0.267 µM | 0.695 µM | 0.376 µM | 0.246 µM | 1.52 µM |
| c1cc(CNCCN2CCNCC2)ccn1 | > 100 µM | > 100 µM | > 100 µM | > 100 µM | > 100 µM | > 100 µM | > 100 µM | > 100 µM | > 100 µM | > 100 µM | – | – | – | – | – | – | – | – | – | – |
| O=C1C2C3C=CC(C2C(=O)N1COP(=O)(O)O)C1C2C(=O)N(COP(=O)(O)O)C(=O)C2C31 (stereo not drawn) | > 100 µM | > 100 µM | > 100 µM | > 57.6 µM | > 100 µM | > 100 µM | > 100 µM | 38.6 µM | > 65.2 µM | > 100 µM | – | – | – | – | – | – | – | – | – | – |
| NC(=O)c1cc(-c2ccc(F)cc2)cc(-c2ccncc2)c1N | > 25 µM | > 23.6 µM | > 25 µM | > 25 µM | > 25 µM | > 25 µM | > 25 µM | > 25 µM | > 25 µM | > 25 µM | > 25 µM | 4.17 µM | > 25 µM | > 25 µM | > 25 µM | > 25 µM | > 25 µM | > 25 µM | > 25 µM | > 25 µM |
| C=C(Br)N(CC)CC | > 100 µM | > 100 µM | > 100 µM | > 100 µM | > 100 µM | > 100 µM | > 100 µM | > 100 µM | > 100 µM | > 100 µM | – | – | – | – | – | – | – | – | – | – |
| O=C(CC1(O)C(=O)Nc2c(Cl)cc(Cl)cc21)c1cccc2ccccc12 (stereo not drawn) | 29.7 µM | 37.3 µM | 29.8 µM | 28.5 µM | 31.5 µM | 30 µM | 25.4 µM | 38.5 µM | 31.8 µM | 29.2 µM | – | – | – | – | – | – | – | – | – | – |
| CN(CC(=O)N(Cc1ccc(C2CCCCC2)cc1)c1ccc(C(=O)O)c(O)c1)S(=O)(=O)c1c(F)c(F)c(F)c(F)c1F | 23.8 µM | 26.1 µM | 31.7 µM | 11.9 µM | 33.7 µM | 23.3 µM | 27.8 µM | 4.28 µM | 3.23 µM | 3.82 µM | 8.88 µM | 13.2 µM | 14.9 µM | 3.72 µM | 19 µM | 9.95 µM | 14 µM | 1.9 µM | 1.71 µM | 1.81 µM |
| Nc1nc(-c2ccccc2)nc(N)c1N=O | 27.1 µM | 30.6 µM | 23.3 µM | 17.8 µM | 16.9 µM | 14 µM | 79.4 µM | 54.9 µM | 5.77 µM | 17.9 µM | 13.2 µM | 15.6 µM | 8.86 µM | 4.12 µM | 4.58 µM | 4.17 µM | 7.39 µM | 3.63 µM | 2 µM | 5.13 µM |
| COc1cc(OC)c(C2CC=Cc3c(OC)cc(OC)c(OC)c32)cc1OC (stereo not drawn) | > 100 µM | > 100 µM | > 100 µM | > 100 µM | > 100 µM | > 100 µM | > 100 µM | > 100 µM | > 100 µM | > 100 µM | – | – | – | – | – | – | – | – | – | – |
| CC(=O)O[C@]1(C(C)=O)CC[C@H]2[C@@H]3C=C(C)C4=CC(=O)CC[C@]4(C)[C@H]3CC[C@@]21C | > 100 µM | > 100 µM | > 100 µM | > 100 µM | > 100 µM | > 100 µM | > 100 µM | > 100 µM | > 100 µM | > 100 µM | > 80.7 µM | > 75.7 µM | > 78.1 µM | 28 µM | > 100 µM | > 100 µM | > 91.5 µM | > 55.8 µM | > 100 µM | > 60.9 µM |
| COc1ccc(Nc2c3ccccc3nc3ccccc23)cc1 | 16.7 µM | 10.5 µM | 11 µM | 11.5 µM | 15 µM | 5.78 µM | 15 µM | 4.01 µM | 14.4 µM | 14.1 µM | 3.85 µM | 0.421 µM | 0.809 µM | 0.576 µM | 1.33 µM | 1.43 µM | 2.06 µM | 0.482 µM | 0.599 µM | 2.55 µM |
| S=c1cc(S)sc2c1c(=S)sc1nc3ccccn3c(=S)c12 | > 100 µM | > 100 µM | > 100 µM | > 100 µM | > 100 µM | > 100 µM | > 100 µM | > 100 µM | > 100 µM | > 100 µM | – | – | – | – | – | – | – | – | – | – |
| O=C(Nc1ccccc1)NS(=O)(=O)c1ccc(-n2nc3c(c2-c2ccc(Cl)cc2)Cc2ccccc2-3)cc1 | > 100 µM | 66.8 µM | > 100 µM | > 100 µM | 55.1 µM | 54.2 µM | > 100 µM | 7.18 µM | 55.4 µM | 63.2 µM | 27.5 µM | 21.8 µM | 24.5 µM | 22.5 µM | 16 µM | 18.3 µM | 45.2 µM | 2.82 µM | 23 µM | 22.3 µM |
| COc1cc(Nc2ccnc(NCCCNc3ccnc4cc(Cl)ccc34)n2)cc(OC)c1 | 3.12 µM | 2.81 µM | 5.46 µM | 2.73 µM | 9.46 µM | 4.32 µM | 5.1 µM | 2.08 µM | 2.78 µM | 2.75 µM | 1.59 µM | 1 µM | 2.09 µM | 0.842 µM | 2.92 µM | 1.95 µM | 1.58 µM | 0.423 µM | 1.28 µM | 1.38 µM |
| COc1ccc2c(c1)C(=O)c1c-2c(Nc2ccc(Cl)cc2)nc2ccccc12 | 16 µM | 18.9 µM | 39.7 µM | 24 µM | > 100 µM | > 100 µM | 42.9 µM | 58.2 µM | > 100 µM | 18.4 µM | 4.15 µM | 5.01 µM | 13.3 µM | 5.03 µM | 50 µM | 33.6 µM | 10.1 µM | 14 µM | 23.8 µM | 5.51 µM |
| O=C(O)c1cccc(N=Nc2c(S(=O)(=O)O)ccc3c2C(=O)c2ccccc2C3=O)c1O | > 100 µM | > 100 µM | > 100 µM | > 100 µM | > 100 µM | > 100 µM | > 100 µM | > 100 µM | > 100 µM | > 100 µM | – | – | – | – | – | – | – | – | – | – |
| Nc1nc(-c2ccc(F)cc2)c(-c2ccc3ncccc3n2)s1 | > 25 µM | 19.4 µM | > 25 µM | > 25 µM | > 25 µM | > 25 µM | > 25 µM | > 25 µM | > 25 µM | > 25 µM | 16.9 µM | 3.83 µM | 13.7 µM | > 25 µM | > 25 µM | 12.7 µM | 16.6 µM | > 25 µM | > 25 µM | > 24.1 µM |
| COc1cc(O)c(C(=O)/C=C/c2ccc(O)cc2)c(O)c1[C@@H]1C[C@H](CCc2ccc(O)cc2)O[C@H](c2ccc(O)cc2)C1 | 7.1 µM | 28.1 µM | – | 11.1 µM | 6.64 µM | 21 µM | 16.8 µM | 4.65 µM | 4.91 µM | 11.5 µM | 2.47 µM | 14 µM | – | 3.74 µM | 2.51 µM | 4.18 µM | 3.35 µM | 2.23 µM | 2.23 µM | 3.31 µM |
